Data: PMC9317443 (Viruses, 2022)
Like-named read-outs stand apart in the source and are kept apart here.

How the values were obtained:
[1] = MTT cytotoxicity / cell viability in CHIKV replicon cells; conditions: hamster, BHK-21-GLuc-nsP-CHIKV-99659 cells (CHIKV replicon cells)
CHIKV replicon = assay: CHIKV replicon-based assay (GLuc activity in BHK-21-GLuc-nsP-CHIKV-99659 cells); conditions: for inhibition at 10 µM: read-out: GLuc Inhibition; for EC50: read-out: EC50 (concentration required to inhibit 50% of the GLuc activity), 48 h; for SI (CC50/EC50): replicon-based assay
[2] = system: BHK-21-GLuc-nsP-CHIKV-99659 cells; assay: MTT cytotoxicity / cell viability in CHIKV replicon cells; conditions: CHIKV replicon cells, 48 h, MTT assay; for CC50: read-out: CC50 (50% cytotoxicity)
CHIKV-nanoluc = assay: Viral infection assay with CHIKV-nanoluc in BHK-21 cells; format: cell-based, Chikungunya virus; conditions: MOI 0.1, 16 h.p.i., read-out: EC50 (CHIKV-nanoluc replication)
BHK-21 cells = assay: Cell viability in the viral infection assay; format: cell-based
[3] = Cell viability in the viral infection assay; format: cell-based; conditions: hamster, BHK-21 cells infected with CHIKV-nanoluc
[4] = cited from earlier work
[5] = system: replication-transcription complex (RTC); conditions: cited from earlier work
[6] = CHIKV replicon cells, GLuc signal from supernatant

Work on Clc1ccccc1C(c1ccccc1)(c1ccccc1)n1ccnc1 [Clotrimazole] yielded a viability at 10 µM [1] of 70.2% and an inhibition at 10 µM (CHIKV replicon; Chikungunya virus) of 70.7%.
Clc1ccc(COC(Cn2ccnc2)c2ccc(Cl)cc2Cl)cc1 (stereo not shown) [Econazole] gave a viability at 10 µM [1] of 81.8% and an inhibition at 10 µM (CHIKV replicon; Chikungunya virus) of 43.8%.
In the case of OC(Cn1cncn1)(Cn1cncn1)c1ccc(F)cc1F [Fluconazole], the viability at 10 µM [1] is reported as 94.3% and the inhibition at 10 µM (CHIKV replicon; Chikungunya virus) is reported as 0%.
With O=C(N[C@@H]1CCCc2c1[nH]c1ccc(Cl)cc21)c1ccccn1 [GSK-983] the “CC50 (50% cytotoxicity)” value [2] was “moderate toxicities”, the CC50 [2] was 10 ± 0.07 µM and the EC50 (CHIKV-nanoluc) was 13.8 ± 3.3 µM. The EC50 (CHIKV replicon; [6]) was 0.33 ± 0.2 µM, the “SI (CC50/EC50)” value (CHIKV replicon) was 30 and the CC50 (BHK-21 cells) was over 100 µM.
Compound C[C@@H](c1nc(-c2ccc(C#N)cc2)cs1)[C@](O)(Cn1cncn1)c1cc(F)ccc1F [Isavuconazole] has a viability at 10 µM [1] of 100% and an inhibition at 10 µM (CHIKV replicon; Chikungunya virus) of 28.6%.
With CCC(C)n1ncn(-c2ccc(N3CCN(c4ccc(OCC5COC(Cn6cncn6)(c6ccc(Cl)cc6Cl)O5)cc4)CC3)cc2)c1=O (stereo not shown) [Itraconazole, itraconazole] the CC50 at 48 h [1] was over 100 µM, the EC50 (CHIKV-nanoluc; Chikungunya virus) was 0.34 ± 0.02 µM and the EC50 (CHIKV replicon; Chikungunya virus) was 0.32 ± 0.2 µM. The “SI (CC50/EC50)” value (CHIKV replicon) was over 312 and the CC50 at 16 h [3] was over 100 µM.
In the case of CC(=O)N1CCN(c2ccc(OCC3COC(Cn4ccnc4)(c4ccc(Cl)cc4Cl)O3)cc2)CC1 (stereo not shown) [Ketoconazole], the viability at 10 µM [1] is reported as 100% and the inhibition at 10 µM (CHIKV replicon; Chikungunya virus) is reported as 0%.
For C[C@H](C(N)=O)N1CCCC[C@@H]1c1ccc(OCc2cccc(F)c2)cc1 [MMV676270], the “CC50 (50% cytotoxicity)” value [2] was “moderate toxicities”, the CC50 [2] was 52 ± 20 µM and the EC50 (CHIKV-nanoluc) was 18.4 ± 5 µM. The EC50 (CHIKV replicon; [6]) was 5.2 ± 1 µM, the “SI (CC50/EC50)” value (CHIKV replicon) was 10 and the CC50 (BHK-21 cells) was 59.5 µM.
In the case of Clc1ccc(COC(Cn2ccnc2)c2ccc(Cl)cc2Cl)c(Cl)c1 (stereo not shown) [Miconazole], the viability at 10 µM [1] is reported as 100% and the inhibition at 10 µM (CHIKV replicon; Chikungunya virus) is reported as 27.8%.
For CC[C@@H]([C@H](C)O)n1ncn(-c2ccc(N3CCN(c4ccc(OC[C@@H]5CO[C@@](Cn6cncn6)(c6ccc(F)cc6F)C5)cc4)CC3)cc2)c1=O [Posaconazole], the “no toxic effects up to concentration” value [4] is given as over 100 µM, the viability at 10 µM [1] is given as 100% and the inhibition at 10 µM (CHIKV replicon; Chikungunya virus) is given as 11.8%.
With C[C@@H](c1nc(-c2ccc(C#N)cc2)cs1)[C@](O)(Cn1cncn1)c1ccc(F)cc1F [Ravuconazole] the viability at 10 µM [1] was 100% and the inhibition at 10 µM (CHIKV replicon; Chikungunya virus) was 25.4%.
For CC[C@@]1(O)C(=O)OCc2c1cc1n(c2=O)Cc2cc3c([N+](=O)[O-])cccc3nc2-1 [Rubitecan, rubitecan], the CC50 at 48 h [1] was over 100 µM, the EC50 (CHIKV-nanoluc; Chikungunya virus) was 3.6 ± 0.8 µM and the EC50 (CHIKV replicon; Chikungunya virus) was 0.14 ± 0.03 µM. The “SI (CC50/EC50)” value (CHIKV replicon) was over 714 and the CC50 at 16 h [3] was over 100 µM.
Work on Clc1ccc(C(Cn2ccnc2)OCc2ccsc2Cl)c(Cl)c1 (stereo not shown) [Tioconazole] yielded a viability at 10 µM [1] of 68.4% and an inhibition at 10 µM (CHIKV replicon; Chikungunya virus) of 54.8%.
C[C@@H](c1ncncc1F)[C@](O)(Cn1cncn1)c1ccc(F)cc1F [Voriconazole] gave a viability at 10 µM [1] of 91.8% and an inhibition at 10 µM (CHIKV replicon; Chikungunya virus) of 13.9%.
For Cc1ccc(C(=O)Nc2ccc(S(=O)(=O)O)c3cc(S(=O)(=O)O)cc(S(=O)(=O)O)c23)cc1NC(=O)c1cccc(NC(=O)Nc2cccc(C(=O)Nc3cc(C(=O)Nc4ccc(S(=O)(=O)O)c5cc(S(=O)(=O)O)cc(S(=O)(=O)O)c45)ccc3C)c2)c1 [suramin], the CC50 at 48 h [1] is given as over 50 µM, the EC50 [5] is given as 6.7 µM and the EC50 (CHIKV replicon; Chikungunya virus) is given as 3.2 ± 0.3 µM.
